Source: PMC3961306, “Comparison of the Cancer Gene Targeting and Biochemical Selectivities of All Targeted Kinase Inhibitors Approved for Clinical Use” (PLoS ONE, 2014)

How the values were obtained:
Test in all cases: Kinase profiling in a biochemical assay panel (mobility shift assays and ELISA), %-inhibition at 1 μM; selectivity entropy
[1] = molecular target: panel of more than 300 wild-type and mutant kinases (313 kinase panel) (Homo sapiens, UniProt Q9UKE5); conditions: kinase TNIK; 1 μM
[2] = molecular target: T1, panel of more than 300 wild-type and mutant kinases (313 kinase panel) (Homo sapiens, UniProt O14965); conditions: 1 μM compound; for %-inhibition, AurA/TPX2: kinase AurA/TPX2; for %-inhibition, AurA: kinase AurA
T1 sequence (O14965 1-403): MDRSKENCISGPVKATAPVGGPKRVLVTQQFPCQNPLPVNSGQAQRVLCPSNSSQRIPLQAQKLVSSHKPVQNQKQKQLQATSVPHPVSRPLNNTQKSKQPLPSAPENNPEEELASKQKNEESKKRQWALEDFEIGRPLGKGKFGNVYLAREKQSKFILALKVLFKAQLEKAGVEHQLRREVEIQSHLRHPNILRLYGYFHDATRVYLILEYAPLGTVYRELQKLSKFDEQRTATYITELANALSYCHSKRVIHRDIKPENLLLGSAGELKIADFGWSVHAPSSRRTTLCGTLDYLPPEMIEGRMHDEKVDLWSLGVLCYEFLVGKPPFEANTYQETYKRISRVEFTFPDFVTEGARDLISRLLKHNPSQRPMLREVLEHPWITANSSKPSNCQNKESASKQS

[3] = molecular target: panel of more than 300 wild-type and mutant kinases (313 kinase panel) (Homo sapiens, UniProt P45984); conditions: kinase JNK2; compound at 1 μM
[4] = molecular target: panel of more than 300 wild-type and mutant kinases (313 kinase panel) (Homo sapiens, UniProt P53667); conditions: kinase LIMK1; compound at 1 μM
[5] = molecular target: T2, panel of more than 300 wild-type and mutant kinases (313 kinase panel) (Homo sapiens, UniProt Q13976)
T2 sequence (Q13976 1-671): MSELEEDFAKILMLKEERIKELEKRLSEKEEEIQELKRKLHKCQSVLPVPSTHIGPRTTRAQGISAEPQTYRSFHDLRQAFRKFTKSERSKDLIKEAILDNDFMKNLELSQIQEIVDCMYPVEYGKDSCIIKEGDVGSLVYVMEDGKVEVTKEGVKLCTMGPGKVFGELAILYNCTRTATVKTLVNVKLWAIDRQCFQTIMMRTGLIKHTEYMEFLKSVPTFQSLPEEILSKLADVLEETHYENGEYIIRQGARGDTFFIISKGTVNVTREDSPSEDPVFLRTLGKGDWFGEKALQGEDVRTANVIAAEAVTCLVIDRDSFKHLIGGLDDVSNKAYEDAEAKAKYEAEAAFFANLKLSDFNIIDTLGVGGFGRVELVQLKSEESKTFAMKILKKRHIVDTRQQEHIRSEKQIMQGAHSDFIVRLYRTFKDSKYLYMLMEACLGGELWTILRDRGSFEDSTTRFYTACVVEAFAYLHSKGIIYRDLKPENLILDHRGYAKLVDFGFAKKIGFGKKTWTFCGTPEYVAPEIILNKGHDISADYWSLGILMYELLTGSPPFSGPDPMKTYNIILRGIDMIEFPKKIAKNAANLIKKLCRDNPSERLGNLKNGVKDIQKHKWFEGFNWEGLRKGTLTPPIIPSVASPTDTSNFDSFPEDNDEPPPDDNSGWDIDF

[6] = molecular target: T3, panel of more than 300 wild-type and mutant kinases (313 kinase panel) (Homo sapiens, UniProt Q13188)
T3 sequence (Q13188 1-491): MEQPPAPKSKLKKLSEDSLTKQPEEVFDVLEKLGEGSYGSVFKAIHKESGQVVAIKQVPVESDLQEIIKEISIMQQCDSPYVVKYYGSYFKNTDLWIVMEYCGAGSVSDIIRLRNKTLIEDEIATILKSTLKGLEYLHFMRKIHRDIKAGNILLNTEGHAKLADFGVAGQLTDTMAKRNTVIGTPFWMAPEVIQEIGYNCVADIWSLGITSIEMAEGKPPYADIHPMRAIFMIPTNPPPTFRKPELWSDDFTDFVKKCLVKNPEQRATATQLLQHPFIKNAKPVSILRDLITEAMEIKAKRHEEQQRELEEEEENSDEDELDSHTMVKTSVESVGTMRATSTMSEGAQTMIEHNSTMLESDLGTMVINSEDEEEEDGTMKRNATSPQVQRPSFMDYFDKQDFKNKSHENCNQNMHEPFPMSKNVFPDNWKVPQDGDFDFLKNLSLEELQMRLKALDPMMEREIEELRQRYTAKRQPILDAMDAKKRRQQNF

[7] = molecular target: panel of more than 300 wild-type and mutant kinases (313 kinase panel) (Homo sapiens, UniProt P23443); conditions: kinase p70S6K; 1 μM
[8] = molecular target: T4, panel of more than 300 wild-type and mutant kinases (313 kinase panel) (Homo sapiens, UniProt P46734)
T4 sequence (P46734 1-347): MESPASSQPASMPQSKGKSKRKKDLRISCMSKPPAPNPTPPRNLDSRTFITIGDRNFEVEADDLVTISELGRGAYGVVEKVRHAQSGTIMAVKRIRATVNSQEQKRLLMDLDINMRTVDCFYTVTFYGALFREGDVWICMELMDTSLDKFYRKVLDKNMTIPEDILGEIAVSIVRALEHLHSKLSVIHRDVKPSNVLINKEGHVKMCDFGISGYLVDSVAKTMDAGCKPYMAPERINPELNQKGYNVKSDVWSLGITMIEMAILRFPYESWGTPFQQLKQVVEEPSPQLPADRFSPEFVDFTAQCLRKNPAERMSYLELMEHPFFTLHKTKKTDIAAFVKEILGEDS

[9] = molecular target: panel of more than 300 wild-type and mutant kinases (313 kinase panel) (Homo sapiens, UniProt Q13153)
[10] = kinase MAP2K3, compound at 1 μM

panel of more than 300 wild-type and mutant kinases (313 kinase panel) (Homo sapiens, UniProt Q9UKE5), sequence (Q9UKE5 whole entry, change not shown): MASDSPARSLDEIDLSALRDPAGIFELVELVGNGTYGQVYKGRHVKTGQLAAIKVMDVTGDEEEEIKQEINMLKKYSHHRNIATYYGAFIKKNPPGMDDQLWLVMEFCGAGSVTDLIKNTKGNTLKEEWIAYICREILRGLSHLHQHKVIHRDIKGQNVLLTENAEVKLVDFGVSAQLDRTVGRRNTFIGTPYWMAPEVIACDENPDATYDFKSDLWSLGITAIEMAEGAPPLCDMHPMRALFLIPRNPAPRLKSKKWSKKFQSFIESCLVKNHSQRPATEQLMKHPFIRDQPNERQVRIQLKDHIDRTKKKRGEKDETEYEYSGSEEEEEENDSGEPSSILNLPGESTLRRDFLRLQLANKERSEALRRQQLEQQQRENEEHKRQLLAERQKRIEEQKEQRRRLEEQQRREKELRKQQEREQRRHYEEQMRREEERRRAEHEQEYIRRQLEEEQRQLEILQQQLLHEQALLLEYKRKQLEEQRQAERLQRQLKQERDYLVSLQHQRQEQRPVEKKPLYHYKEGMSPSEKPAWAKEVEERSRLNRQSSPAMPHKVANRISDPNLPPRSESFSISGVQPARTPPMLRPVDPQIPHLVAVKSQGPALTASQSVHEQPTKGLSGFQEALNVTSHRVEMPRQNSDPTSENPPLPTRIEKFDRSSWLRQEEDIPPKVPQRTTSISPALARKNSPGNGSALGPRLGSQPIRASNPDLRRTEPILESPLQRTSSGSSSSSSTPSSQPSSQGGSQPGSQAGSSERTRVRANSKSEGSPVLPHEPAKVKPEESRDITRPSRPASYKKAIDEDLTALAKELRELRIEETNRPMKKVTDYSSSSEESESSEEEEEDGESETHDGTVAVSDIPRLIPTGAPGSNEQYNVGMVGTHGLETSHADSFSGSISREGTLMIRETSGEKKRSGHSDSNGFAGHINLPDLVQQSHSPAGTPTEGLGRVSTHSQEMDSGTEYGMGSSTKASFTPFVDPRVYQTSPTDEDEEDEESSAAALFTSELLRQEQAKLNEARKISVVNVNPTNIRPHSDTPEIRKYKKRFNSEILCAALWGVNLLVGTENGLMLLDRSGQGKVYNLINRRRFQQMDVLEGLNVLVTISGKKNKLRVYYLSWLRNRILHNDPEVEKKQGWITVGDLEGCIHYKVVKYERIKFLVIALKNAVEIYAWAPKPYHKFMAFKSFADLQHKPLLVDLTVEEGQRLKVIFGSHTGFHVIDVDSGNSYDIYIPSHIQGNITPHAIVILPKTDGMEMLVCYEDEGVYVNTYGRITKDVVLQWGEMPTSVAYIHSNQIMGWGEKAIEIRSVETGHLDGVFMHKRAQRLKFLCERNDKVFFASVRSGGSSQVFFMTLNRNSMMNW
panel of more than 300 wild-type and mutant kinases (313 kinase panel) (Homo sapiens, UniProt P45984), sequence (P45984 whole entry, change not shown): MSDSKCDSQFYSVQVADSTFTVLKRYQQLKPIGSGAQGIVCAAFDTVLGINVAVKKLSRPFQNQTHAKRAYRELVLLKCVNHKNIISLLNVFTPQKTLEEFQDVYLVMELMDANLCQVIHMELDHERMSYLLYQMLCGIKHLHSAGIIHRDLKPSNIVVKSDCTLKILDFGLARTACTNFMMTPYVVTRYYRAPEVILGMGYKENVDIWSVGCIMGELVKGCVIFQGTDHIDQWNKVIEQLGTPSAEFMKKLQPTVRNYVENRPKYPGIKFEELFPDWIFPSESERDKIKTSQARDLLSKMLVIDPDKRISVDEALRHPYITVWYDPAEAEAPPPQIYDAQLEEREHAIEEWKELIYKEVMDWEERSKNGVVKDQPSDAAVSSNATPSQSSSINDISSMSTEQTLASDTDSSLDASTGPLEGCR

Structure (SMILES) | %-inhibition of TNIK [1] | %-inhibition, AurA/TPX2 [2] | %-inhibition, AurA [2] | %-inhibition of JNK2 [3] | %-inhibition of LIMK1 [4] | %-inhibition of PGK ([5]; kinase PGK, 1 μM) | %-inhibition of MST2 ([6]; kinase MST2, 1 μM) | %-inhibition of p70S6K [7] | %-inhibition of MAP2K3 [8, 10] | %-inhibition of PAK1 ([9]; kinase PAK1, 1 μM) | %-inhibition of PAK1 ([9]; 1 µM) | %-inhibition of MAP2K3 ([8]; 1 µM) | %-inhibition of PGK ([5]; 1 µM) | %-inhibition of MST2 ([6]; 1 µM)
CO[C@H]1C[C@@H]2CC[C@@H](C)[C@@](O)(O2)C(=O)C(=O)N2CCCC[C@H]2C(=O)O[C@H]([C@H](C)C[C@@H]2CC[C@@H](OCCO)[C@H](OC)C2)CC(=O)[C@H](C)/C=C(\C)[C@@H](O)[C@@H](OC)C(=O)[C@H](C)C[C@H](C)/C=C/C=C/C=C/1C [everolimus] | -3% | -4.51% | 3.74% | -5.37% | 3.28% | -6.44% | -2.3% | -13% | 10% | -5.39% |  |  |  | 
CCN(CC)CCNC(=O)c1c(C)[nH]c(/C=C2\C(=O)Nc3ccc(F)cc32)c1C [sunitinib] | 94% | 72% | 81% |  |  |  |  | 88% |  |  |  |  |  | 
CC(=O)Nc1cccc(-n2c(=O)n(C3CC3)c(=O)c3c(Nc4ccc(I)cc4F)n(C)c(=O)c(C)c32)c1 [trametinib] | 3% | -5.37% | -2% | -4.73% | -1.84% | -1.31% | -3% | -1.39% | 3% |  | -1.35% |  |  | 
O=S(=O)(c1cccc2cnccc12)N1CCCNCC1 [fasudil] | 4% | -1.11% | -2% | -5% | -7% | 44% | 1.77% | 38% | -4% |  |  |  |  | 
CC(C)(C)c1nc(-c2cccc(NS(=O)(=O)c3c(F)cccc3F)c2F)c(-c2ccnc(N)n2)s1 [dabrafenib] | 15% |  |  | -0.947% | 100% |  |  |  | 11% |  |  |  |  | 
C[C@@H](Oc1cc(-c2cnn(C3CCNCC3)c2)cnc1N)c1c(Cl)ccc(F)c1Cl [crizotinib] | 11% |  |  | -2.59% | 94% | -2.6% | 13% | 40% | 12% | -4% |  |  |  | 
COc1cc2c(Nc3ccc(Br)cc3F)ncnc2cc1OCC1CCN(C)CC1 [vandetanib] | 66% |  |  | -4% | 12% | -3.59% | -4% |  | 16% | -5.28% |  |  |  | 
Cc1ccc(C(=O)Nc2ccc(CN3CCN(C)CC3)c(C(F)(F)F)c2)cc1C#Cc1cnc2cccnn12 [ponatinib] | 96% | -3.42% | 9% |  | 68% | -0.866% |  | 101% |  |  |  |  |  | 
Cc1ccc(Nc2nccc(N(C)c3ccc4c(C)n(C)nc4c3)n2)cc1S(N)(=O)=O [pazopanib] | 83% |  |  |  |  | -3% | 2% | 17% | 47% | -0.494% |  |  |  | 
Cc1nc(Nc2ncc(C(=O)Nc3c(C)cccc3Cl)s2)cc(N2CCN(CCO)CC2)n1 [dasatinib] |  | 22% |  |  |  |  |  | 11% | 35% |  |  |  |  | 
COc1cc(Nc2c(C#N)cnc3cc(OCCCN4CCN(C)CC4)c(OC)cc23)c(Cl)cc1Cl [bosutinib] | 102% |  |  |  | -7% | -3.22% |  | 43% |  |  |  | 34% |  | 
CS(=O)(=O)CCNCc1ccc(-c2ccc3ncnc(Nc4ccc(OCc5cccc(F)c5)c(Cl)c4)c3c2)o1 [lapatinib] | 25% | -10% | 5.59% | -8% | -2.33% |  |  | 8% | 13% |  |  |  | -1% | -0.701%
